Measurements published in US20240132480A1, “INHIBITORS OF MYCOBACTERIUM TUBERCULOSIS LIPOAMIDE DEHYDROGENASE” (Cornell University, priority 2021, published 2024).
Where two headings read alike, the source gives them in different places.

What was measured:
Mtb Lpd = Mtb Lpd (Mycobacterium tuberculosis (strain ATCC 25618 / H37Rv), UniProt P9WHH9); format: biochemical
[1] = microsomes
[2] = Microsomal clearance (hLM); settings: human liver microsomes
[3] = 30 min preincubation, read-out: LPD IC50 (μM) w/ 30 min preincubation

SMILES | IC50 (Mtb Lpd; read-out: LPD IC50) [µM] | Human Liver Microsome Stability [1] [µL/min/mg] | Human Liver Microsome Stability [2] [µL/min/mg] | IC50 (Mtb Lpd; [3]) [µM]
CN(CC(=O)Nc1ccc2c(c1)OCCN2C1CCOCC1)S(=O)(=O)c1cc(Cl)cc2cn[nH]c12 [Example 166] | 0.034 | 122 |  | 
Cc1cc(S(=O)(=O)N(C)CC(=O)Nc2ccn3ccnc3c2)c2[nH]ncc2c1 [Example 26] | 0.0628 | 154 |  | 
CN(CC(=O)Nc1ccc2c(c1)OCCN2C1CCOCC1)S(=O)(=O)c1cc(C2(O)CC2)cc2cn[nH]c12 [Example 174] | 0.55 | 131 |  | 
COc1ccc(NC(=O)[C@@H]2CCCN2S(=O)(=O)c2cc(C)cc3cn[nH]c23)cc1Cl [Example 4, (S)—N-(3-chloro-4-methoxyphenyl)-1-((5-methyl-1H-indazol-7-yl)sulfonyl)pyrrolidine-2-carboxamide] | 0.39 |  | 324 | 
Cc1cc(S(=O)(=O)N2CCC(C(=O)Nc3ccn(C)c(=O)c3)C2)c2[nH]ncc2c1 (stereo not shown) [Example 97] | 0.0419 | -5 |  | 
Cc1cc(S(=O)(=O)N(C)CC(=O)Nc2cccc(N3CCCCC3=O)c2)c2[nH]c(C#N)cc2c1 [Example 219] |  | 150 |  | 0.03
O=C(Nc1ccc(N2CCOCC2)c(Cl)c1)[C@H]1CCN1S(=O)(=O)c1cc(C(F)F)cc2cn[nH]c12 [Example 191, (2R)—N-(3-chloro-4-morpholino-phenyl)-1-[[5-(difluoromethyl)-1H-indazol-7-yl]sulfonyl]azetidine-2-carboxamide] | > 10 | 98 |  | 
CN(CC(=O)Nc1ccn(C)c(=O)c1)S(=O)(=O)c1cc(Cl)cc2cc(C#N)[nH]c12 [Example 225] |  | 11 |  | 0.035
Cc1cc(S(=O)(=O)N2CC[C@H]2C(=O)Nc2ccc3cccnc3c2)c2[nH]ncc2c1 [Example 106] | 0.019 | 236 |  | 
COc1ccc(CNC(=O)CN(C)S(=O)(=O)c2cc(C)cc3c[nH]nc23)cc1 [Example 51] | 0.049 | 70 |  | 
Cn1ccc(NC(=O)[C@@H]2CCN2S(=O)(=O)c2cc(C(F)F)cc3cn[nH]c23)cc1=O [Example 152, (S)-1-((5-(difluoromethyl)-1H-indazol-7-yl)sulfonyl)-N-(1-methyl-2-oxo-1,2-dihydropyridin-4-yl)azetidine-2-carboxamide] | 0.058 | -7 |  | 
Cc1cc(S(=O)(=O)N(C)CC(=O)Nc2ccn(C)c(=O)c2)c2[nH]c(C#N)cc2c1 [Example 124, 2-((2-cyano-N,5-dimethyl-1H-indole)-7-sulfonamido)-N-(1-methyl-2-oxo-1,2-dihydropyridin-4-yl)acetamide] | 0.0796 | 51 |  | 
Cc1cc(S(=O)(=O)N(C)CC(=O)Nc2ccc3c(c2)OC(C)(C)CN3C)c2n[nH]cc2c1 [Example 158] | 0.022 | 46 |  | 
Cc1cc(S(=O)(=O)N(C)CC(=O)Nc2ccn(C)c(=O)c2)c2[nH]ccc2c1 [Example 23] | 0.0993 | 19 |  | 
CN(CC(=O)Nc1ccn(C)c(=O)c1)S(=O)(=O)c1cc(C(F)F)cc2cn[nH]c12 [Example 37] | 0.0474 | 22 |  | 
Cc1cc(S(=O)(=O)N(C)CC(=O)Nc2ccc3c(c2)OCCN3C)c2[nH]ncc2c1 [Example 30, 2-((N,5-dimethyl-1H-indazole)-7-sulfonamido)-N-(4-methyl-3,4-dihydro-2H-benzo[b][1,4]oxazin-7-yl)acetamide] | 0.00363 | 78 |  | 
Cc1cc(S(=O)(=O)N(C)CC(=O)Nc2ccn(C)c(=O)c2)c2[nH]nc(C)c2c1 [Example 36] | 0.0657 | -26 |  | 
COc1ccc(NC(=O)CN(C)S(=O)(=O)c2cc(C)cc3cn[nH]c23)cc1Cl [Example 1, N-(3-chloro-4-methoxyphenyl)-2-((N,5-dimethyl-1H-indazole)-7-sulfonamido)acetamide] |  |  | >768 | 
Cc1cc(S(=O)(=O)N(C)CC(=O)Nc2ccn3cnnc3c2)c2n[nH]cc2c1 [Example 102] | 0.042 | 31 |  | 
Cc1cc(S(=O)(=O)N2CC[C@H]2C(=O)Nc2ccc3c(c2)OCCN3C)c2[nH]ncc2c1 [Example 40] | 0.03 | 78 |  | 
CCn1ccc(NC(=O)CN(C)S(=O)(=O)c2cc(C)cc3cn[nH]c23)cc1=O [Example 14, 2-((N,5-dimethyl-1H-indazole)-7-sulfonamido)-N-(1-ethyl-2-oxo-1,2-dihydropyridin-4-yl)acetamide] | 0.0531 | -12 |  | 
Cc1cc(S(=O)(=O)N(C)CC(=O)Nc2cc(=O)n3c(n2)CCCC3)c2[nH]c(C#N)cc2c1 [Example 224, 2-((2-cyano-N,5-dimethyl-1H-indole)-7-sulfonamido)-N-(4-oxo-6,7,8,9-tetrahydro-4H-pyrido[1,2-a]pyrimidin-2-yl)acetamide] |  | 61 |  | 0.022
